ChEMBL document CHEMBL5143608, “Peptide-based long-acting co-agonists of GLP-1 and cholecystokinin 1 receptors as novel anti-diabesity agents” (Eur J Med Chem, 2022)
Active and inactive are the calls of the source. The calls are words filed in the database; no cut-off is given here. Where a SMILES comes first, the peptide text is derived from it. [ ]: non-standard residue; d: D form. ξ: configuration not given here. ξpGlu = O=C1CCC(C(=O)O)N1

Key:
[1] = molecular target: T1, Cholecystokinin receptor type A (Homo sapiens, UniProt P32238); test: Agonist activity at human CCK1R expressed in HEK293 cells assessed as ERK1/2 phosphorylation incubated for 5 mins by AlphaScreen assay; type: functional, cell-based
T1 sequence (P32238 whole entry): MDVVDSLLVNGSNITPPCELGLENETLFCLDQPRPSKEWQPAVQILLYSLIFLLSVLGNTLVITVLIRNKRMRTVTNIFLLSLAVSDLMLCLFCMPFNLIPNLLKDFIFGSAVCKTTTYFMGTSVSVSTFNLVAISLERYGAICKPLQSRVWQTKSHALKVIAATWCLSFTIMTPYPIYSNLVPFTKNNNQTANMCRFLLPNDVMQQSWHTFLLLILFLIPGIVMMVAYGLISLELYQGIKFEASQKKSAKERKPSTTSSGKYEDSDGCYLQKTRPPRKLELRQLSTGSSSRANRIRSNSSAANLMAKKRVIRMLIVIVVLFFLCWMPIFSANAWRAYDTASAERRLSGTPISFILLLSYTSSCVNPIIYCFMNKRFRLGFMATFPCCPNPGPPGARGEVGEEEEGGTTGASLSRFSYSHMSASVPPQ

[2] = molecular target: T2, Gastrin/cholecystokinin type B receptor (Homo sapiens, UniProt P32239); test: Agonist activity at human CCK2R expressed in HEK293 cells assessed as ERK1/2 phosphorylation incubated for 5 mins by AlphaScreen assay; type: functional, cell-based
T2 sequence (P32239 whole entry): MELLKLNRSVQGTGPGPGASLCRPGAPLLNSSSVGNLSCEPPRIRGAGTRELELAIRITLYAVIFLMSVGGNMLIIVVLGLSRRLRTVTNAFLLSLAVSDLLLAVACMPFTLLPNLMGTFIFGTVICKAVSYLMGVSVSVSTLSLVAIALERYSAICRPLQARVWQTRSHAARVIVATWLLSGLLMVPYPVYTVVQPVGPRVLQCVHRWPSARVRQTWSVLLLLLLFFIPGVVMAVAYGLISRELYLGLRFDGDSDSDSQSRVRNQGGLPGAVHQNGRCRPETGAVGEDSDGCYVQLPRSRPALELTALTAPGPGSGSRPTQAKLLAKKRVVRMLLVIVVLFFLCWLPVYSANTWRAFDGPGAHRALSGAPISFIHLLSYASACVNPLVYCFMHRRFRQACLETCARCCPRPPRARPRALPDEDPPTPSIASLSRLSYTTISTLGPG

[3] = Pancreatic insult activity in db/db mouse assessed as increase in lipase level in serum at 25 nmol/kg, sc administered every 2 days for 12 weeks; type: toxicity, organism-based; conditions: in vivo, 2016 h
[4] = Pancreatic insult activity in db/db mouse assessed as increase in amylase level in serum at 25 nmol/kg, sc administered every 2 days for 12 weeks; type: toxicity, organism-based; conditions: in vivo, 2016 h
[5] = test system: Mus musculus; test: Anti-diabesity activity against db/db mouse assessed as reduction in HbA1c level at 25 nmol/kg, sc administered every 2 days and measured on day 43; type: functional, organism-based; conditions: time 43.0 day
[6] = test system: Mus musculus; test: Anti-diabesity activity against db/db mouse assessed as reduction in fasting blood glucose level at 25 nmol/kg, sc administered every 2 days for 12 weeks; type: functional, organism-based
[7] = test system: Mus musculus; test: Hypoglycemic activity in db/db mouse assessed as improvement in glucose tolerance at 25 nmol/kg, ip administered 30 min before oral glucose administration and measured upto 120 mins by OGTT; type: functional, organism-based
[8] = test system: Mus musculus; test: Hypoglycemic activity in db/db mouse assessed as reduction in glucose excursion at 25 nmol/kg, ip administered 30 min before oral glucose administration and measured upto 120 mins by OGTT; type: functional, organism-based
[9] = test system: Mus musculus; test: Insulinotropic activity in db/db mouse assessed as elevation of plasma insulin level at 25 nmol/kg, ip administered 30 min before oral glucose administration and measured upto 60 mins by ELISA; type: functional, organism-based; conditions: time <= 90.0 min
[10] = test system: Mus musculus; test: Anti-diabesity activity in DIO C57BL/6 mouse assessed as reduction in body weight at 10 nmol/kg, sc administered every 2 days for 10 days; type: functional; conditions: time 10.0 day
[11] = test system: Mus musculus; test: Anti-diabesity activity in DIO C57BL/6 mouse assessed as reduction in body weight at 25 nmol/kg, sc administered every 2 days for 10 days; type: functional; conditions: time 10.0 day
[12] = test system: Mus musculus; test: Anti-diabesity activity in DIO C57BL/6 mouse assessed as improvement in insulin sensitivity at 25 nmol/kg, sc administered every 2 days for 10 days by insulin tolerance test; type: functional, organism-based; conditions: time 10.0 day
[13] = test system: Mus musculus; test: Anti-diabesity activity against DIO C57BL/6 mouse assessed as reduction in body weight at 25 nmol/kg, sc administered every 2 days for 3 weeks; type: functional; conditions: time 21.0 day
[14] = test system: Mus musculus; test: Anti-diabesity activity against DIO C57BL/6 mouse assessed as reduction in cumulative food intake at 25 nmol/kg, sc administered every 2 days for 3 weeks; type: functional, organism-based; conditions: time 21.0 day
[15] = test system: Mus musculus; test: Anti-diabesity activity against DIO C57BL/6 mouse assessed as decrease in fat mass at 25 nmol/kg, sc administered every 2 days for 3 weeks; type: functional, organism-based; conditions: time 21.0 day
[16] = test system: Mus musculus; test: Anti-diabesity activity against DIO C57BL/6 mouse assessed as reduction in fasted blood glucose level at 25 nmol/kg, sc administered every 2 days for 3 weeks; type: functional, organism-based; conditions: time 21.0 day
[17] = test system: Mus musculus; test: Anti-diabesity activity against DIO C57BL/6 mouse assessed as improvement in glucose tolerance at 25 nmol/kg, sc administered every 2 days for 3 weeks by OGTT; type: functional, organism-based; conditions: time 21.0 day
[18] = test system: Mus musculus; test: Anti-diabesity activity against DIO C57BL/6 mouse assessed as reduction in cholesterol level in serum at 25 nmol/kg, sc administered every 2 days for 3 weeks; type: functional, organism-based; conditions: time 21.0 day
[19] = test system: Mus musculus; test: Anti-diabesity activity against DIO C57BL/6 mouse assessed as reduction in triglycerides level in serum at 25 nmol/kg, sc administered every 2 days for 3 weeks; type: functional, organism-based; conditions: time 21.0 day
[20] = test system: Mus musculus; test: Anti-diabesity activity against db/db mouse assessed as reduction in body weight at 25 nmol/kg, sc administered every 2 days for 3 weeks; type: functional, organism-based; conditions: time 21.0 day
[21] = test system: Mus musculus; test: Anti-diabesity activity against db/db mouse assessed as reduction in cumulative food intake at 25 nmol/kg, sc administered every 2 days for 3 weeks; type: functional, organism-based; conditions: time 21.0 day
[22] = test system: Mus musculus; test: Anti-diabesity activity against db/db mouse assessed as reduction in fasted blood glucose level at 25 nmol/kg, sc administered every 2 days for 3 weeks; type: functional, organism-based; conditions: time 21.0 day
[23] = test system: Mus musculus; test: Anti-diabesity activity against db/db mouse assessed as increase in islet area at 25 nmol/kg, sc administered every 2 days for 3 weeks by H and E staining based analysis; type: functional, organism-based; conditions: time 21.0 day
[24] = test system: Mus musculus; test: Anti-diabesity activity against db/db mouse assessed as increase in islet number at 25 nmol/kg, sc administered every 2 days for 3 weeks by H and E staining based analysis; type: functional, organism-based; conditions: time 21.0 day
[25] = test system: Mus musculus; test: Anti-diabesity activity against db/db mouse assessed as enhanced islets insulin content at 25 nmol/kg, sc administered every 2 days for 3 weeks by immunohistochemistry staining; type: functional, organism-based; conditions: time 21.0 day
[26] = test system: Mus musculus; test: Anti-diabesity activity against db/db mouse assessed as improvement in glucose tolerance at 25 nmol/kg, sc administered every 2 days for 12 weeks by OGTT; type: functional, organism-based
[27] = test system: Mus musculus; test: Anti-diabesity activity in DIO C57BL/6 mouse assessed as reduction in body weight at 100 nmol/kg, sc administered every 2 days for 10 days; type: functional; conditions: time 10.0 day
[28] = test system: BRIN-BD11; test: Insulinotropic activity in rat BRIN-BD11 cells assessed as increase in insulin secretion incubated for 20 mins by radioimmunoassay; type: functional, cell-based; conditions: DDE = dose-dependent effect
[29] = test system: Mus musculus; test: Anti-diabesity activity against db/db mouse assessed as HbA1c level at 25 nmol/kg, sc administered every 2 days for 3 weeks; type: functional, organism-based; conditions: time 21.0 day
[30] = test system: Mus musculus; test: Anti-diabesity activity against db/db mouse assessed as improvement in glucose tolerance at 25 nmol/kg, sc administered every 2 days for 3 weeks by OGTT; type: functional, organism-based; conditions: time 21.0 day
[31] = test system: Mus musculus; test: Anti-diabesity activity against db/db mouse assessed as reduction in HbA1c level at 25 nmol/kg, sc administered every 2 days for 12 weeks; type: functional, organism-based
[32] = test system: Mus musculus; test: Anti-diabesity activity against db/db mouse assessed as improvement in glucose tolerance level at 25 nmol/kg, sc administered every 2 days for 6 weeks followed by saline treatment for 6 weeks and measured during first 6 weeks by OGTT; type: functional, organism-based
[33] = test system: Mus musculus; test: Anti-diabesity activity against db/db mouse assessed as reduction in fasting blood glucose level at 25 nmol/kg, sc administered every 2 days for 6 weeks followed by saline treatment for 6 weeks and measured during first 6 weeks; type: functional, organism-based
[34] = test system: Mus musculus; test: Anti-diabesity activity against db/db mouse assessed as improvement in glucose tolerance level at 25 nmol/kg, sc administered every 2 days for 6 weeks followed by saline treatment for 6 weeks and measured during second 6 weeks by OGTT; type: functional, organism-based
[35] = test system: Mus musculus; test: Anti-diabesity activity against db/db mouse assessed as reduction in fasting blood glucose level at 25 nmol/kg, sc administered every 2 days for 6 weeks followed by saline treatment for 6 weeks and measured during second 6 weeks; type: functional, organism-based
[36] = test system: Mus musculus; test: Anti-diabesity activity against db/db mouse assessed as reduction in HbA1c level at 25 nmol/kg, sc administered every 2 days for 6 weeks followed by saline treatment for 6 weeks and measured during first 6 weeks; type: functional, organism-based
[37] = test system: Mus musculus; test: Anti-diabesity activity against db/db mouse assessed as reduction in HbA1c level at 25 nmol/kg, sc administered every 2 days for 6 weeks followed by saline treatment for 6 weeks and measured during second 6 weeks; type: functional, organism-based
[38] = test system: Mus musculus; test: Anti-diabesity activity against db/db mouse assessed as increase in insulin sensitivity by measuring reduction in plasma insulin level at 25 nmol/kg, sc administered every 2 days for 12 weeks by ELISA; type: functional, organism-based
[39] = test system: Mus musculus; test: Anti-diabesity activity against db/db mouse assessed as increase in pancreas mass at 25 nmol/kg, sc administered every 2 days for 12 weeks; type: functional, organism-based
[40] = test system: Mus musculus; test: Anti-diabesity activity against db/db mouse assessed as increase in IOD of insulin in pancreas at 25 nmol/kg, sc administered every 2 days for 12 weeks by immunohistochemistry; type: functional, organism-based

Q: With `CC(C)C[C@H](NC(=O)[C@H](Cc1c[nH]c2ccccc12)NC(=O)CNC(=O)[C@H](Cc1ccc(O)cc1)NC(=O)[C@H](C)NC(=O)[C@H](CCC(=O)O)NC(=O)[C@H](CCC(=O)O)NC(=O)[C@H](CCC(=O)O)NC(=O)[C@H](CCC(=O)O)NC(=O)[C@H](CCC(=O)O)NC(=O)[C@H](CC(C)C)NC(=O)[C@H](Cc1c[nH]c2ccccc12)NC(=O)[C@@H]1CCCN1C(=O)CNC(=O)C1CCC(=O)N1)C(=O)N[C@@H](CC(=O)O)C(=O)N[C@@H](Cc1ccccc1)C(N)=O` (stereo not given in full) ([ξpGlu]GPWLEEEEEAYGWLDF-NH2) as the molecule, how does the EC50 [1] read?
A: The EC50 was > 100 nM.

Q: What about the EC50 [2] of the same molecule?
A: The EC50 was 2.4 nM.

Q: For SEMAGLUTIDE [listing 1 of 2 here], which Activity [3] is on record?
A: The Activity was “Toxic”.

Q: What about the Activity [4] of the same molecule?
A: Its Activity is “Toxic”.

Q: Which results are given for SEMAGLUTIDE [listing 2 of 2 here]?
A: Activity [5]: Active; Activity [6]: Active; Activity [7]: Active; Activity [8]: Active; Activity [9]: Active; inhibition [10]: 8.2%; inhibition [11]: 12.5%; Activity [12]: Active; inhibition [13]: 14.9%; Activity [14]: Active; Activity [15]: Active; Activity [16]: Active; Activity [17]: Active; Activity [18]: Active; Activity [19]: Active; Activity [20]: Active; Activity [21]: Active; Activity [22]: Active; Activity [23]: Active; Activity [24]: Active; Activity [25]: Active; Activity [26]: Active; inhibition [27]: 17.3%; Activity [28]: Dde; Activity [29]: Active; Activity [30]: Active; Activity [31]: Active; Activity [32]: Active; Activity [33]: Active; Activity [34]: Active; Activity [35]: Active; Activity [36]: Active; Activity [37]: Active; Activity [38]: Active; Activity [39]: Active; Activity [40]: Active
